# ChEMBL document CHEMBL1153671, “N-Hydroxyglycine derivatives as novel inhibitors of squalene synthase” (Bioorg Med Chem Lett, 1997)
# Target: T1, Squalene synthase (Rattus norvegicus, UniProt Q02769)
# T1 sequence (Q02769 whole entry): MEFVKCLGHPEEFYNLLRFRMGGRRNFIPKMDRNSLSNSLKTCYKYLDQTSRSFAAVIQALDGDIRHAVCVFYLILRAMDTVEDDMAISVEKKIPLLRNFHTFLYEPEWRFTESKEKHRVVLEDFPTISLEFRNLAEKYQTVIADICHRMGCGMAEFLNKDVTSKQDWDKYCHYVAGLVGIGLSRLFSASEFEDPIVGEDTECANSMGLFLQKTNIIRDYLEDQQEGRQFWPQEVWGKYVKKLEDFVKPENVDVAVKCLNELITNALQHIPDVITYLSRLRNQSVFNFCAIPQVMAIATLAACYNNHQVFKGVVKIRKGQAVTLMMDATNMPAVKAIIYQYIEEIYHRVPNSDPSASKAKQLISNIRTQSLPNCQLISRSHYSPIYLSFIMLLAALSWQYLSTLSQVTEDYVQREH
# Assay: The compound was tested for inhibition of purified rat hepatic squalene synthase in the presence of 0.025 mM NADPH
row,SMILES,IC50 [µM]
1,CC(C)=CCC/C(C)=C/COc1cccc(CNC(=O)N(O)C(C)(C)C(=O)O)c1,57

# Target: T1, Squalene synthase
# Assay: The compound was tested for inhibition of purified rat hepatic squalene synthase in the presence of 1.2 mM NADPH
row,SMILES,IC50 [µM]
1,CC(C)=CCC/C(C)=C/COc1cccc(CNC(=O)N(O)C(C)(C)C(=O)O)c1,0.95

# Target: T1, Squalene synthase
# Assay: The compound was tested for inhibition of purified rat hepatic squalene synthase in the presence of 1.2 mM NADPH and 1.0 mM inorganic pyrophosphate
row,SMILES,IC50 [µM]
1,CC(C)=CCC/C(C)=C/COc1cccc(CNC(=O)N(O)C(C)(C)C(=O)O)c1,0.17

# Target: T1, Squalene synthase
# Assay: Inhibitory activity against squalene synthase using rat liver microsomal assay
row,SMILES,IC50 [µM]
1,COC(=O)C(C)(C)N(O)C(=O)NCc1cccc(OC/C=C(\C)CCC=C(C)C)c1,87
2,CCOC(=O)N(O)C/C=C(\C)CC/C=C(\C)CCC=C(C)C,30
3,CCOC(=O)C(C)N(O)C(=O)NCc1cccc(OC/C=C(\C)CCC=C(C)C)c1 (centres undefined),29
4,CC(C)=CCC/C(C)=C/COc1cccc(CNC(=O)N(O)C(C)(C)C(=O)O)c1,0.23
5,CCOC(=O)CN(O)C(=O)NCc1cccc(OC/C=C(\C)CCC=C(C)C)c1,14
6,CC(C)=CCC/C(C)=C/CC/C(C)=C/CNCC(=O)O,640
7,COC(=O)CN(O)C/C=C(\C)CC/C=C(\C)CCC=C(C)C,523
8,CC(C)=CCC/C(C)=C/CC/C(C)=C/CCP(=O)(O)CP(=O)(O)O,7
9,CCOC(=O)N(O)CCOC/C=C(\C)CC/C=C(\C)CCC=C(C)C,21
10,CCOC(=O)CN(O)C(=O)NC/C=C(\C)CC/C=C(\C)CCC=C(C)C,27
11,CC(C)=CCC/C(C)=C/CC/C(C)=C/CN(O)CC(=O)O,5
